Measurements taken from US10206394B2, “Herbicidal compounds” (Syngenta Participations AG, priority 2014, dated 2019).
Like-named read-outs stand apart in the source and are kept apart here.

What was measured:
Test in all cases: Glasshouse assay for herbicidal activity (pre- and post-emergence), percentage phytotoxicity
Format in all cases: in vivo
[1] = test system: Echinochloa crus-galli (ECHCG); settings: Echinochloa crus-galli
Method in brief: (§1)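 Pot-grown plants treated one day after sowing (pre-emergence) or at about 12 days (post-emergence); glasshouse at 24/18° C (warm) or 20/16° C (cool species) day/night, 16 h light, 65% humidity. Visual % phytotoxicity (0 = none, 100 = total damage) scored at 15 DAA post or 20 DAA pre.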

Avena fatua (AVEFA) = settings: Avena fatua
Method in brief: as §1

[2] = test system: Alopecurus myosuroides (ALOMY); settings: Alopecurus myosuroides
Method in brief: as §1

Lolium perenne (LOLPE) = settings: Lolium perenne
Method in brief: as §1

[3] = post-emergence, 360 h, Rate 250 g/ha, post-emergence, assessed visually 15 DAA, 100%=total damage, 0%=no damage, read-out: Post-emergence herbicidal activity (percentage phytotoxicity) ECHCG POST
[4] = pre-emergence, 480 h, Rate 250 g/ha, pre-emergence, assessed visually 20 DAA, 100%=total damage, 0%=no damage, read-out: Pre-emergence herbicidal activity (percentage phytotoxicity) ECHCG PRE
[5] = post-emergence, 360 h, Rate 250 g/ha, post-emergence, assessed visually 15 DAA, 100%=total damage, 0%=no damage, read-out: Post-emergence herbicidal activity (percentage phytotoxicity) AVEFA POST
[6] = pre-emergence, 480 h, Rate 250 g/ha, pre-emergence, assessed visually 20 DAA, 100%=total damage, 0%=no damage, read-out: Pre-emergence herbicidal activity (percentage phytotoxicity) AVEFA PRE
[7] = post-emergence, 360 h, Rate 250 g/ha, post-emergence, assessed visually 15 DAA, 100%=total damage, 0%=no damage, read-out: Post-emergence herbicidal activity (percentage phytotoxicity) ALOMY POST
[8] = pre-emergence, 480 h, Rate 250 g/ha, pre-emergence, assessed visually 20 DAA, 100%=total damage, 0%=no damage, read-out: Pre-emergence herbicidal activity (percentage phytotoxicity) ALOMY PRE
[9] = post-emergence, 360 h, Rate 250 g/ha, post-emergence, assessed visually 15 DAA, 100%=total damage, 0%=no damage, read-out: Post-emergence herbicidal activity (percentage phytotoxicity) LOLPE POST
[10] = pre-emergence, 480 h, Rate 250 g/ha, pre-emergence, assessed visually 20 DAA, 100%=total damage, 0%=no damage, read-out: Pre-emergence herbicidal activity (percentage phytotoxicity) LOLPE PRE
[11] = post-emergence, 360 h, POST-emergence, rate 250 g/ha, visual score 15 DAA (100%=total damage, 0%=no damage), read-out: Post-emergence herbicidal activity (percentage phytotoxicity) ECHCG POST
[12] = pre-emergence, 480 h, PRE-emergence, rate 250 g/ha, visual score 20 DAA (100%=total damage, 0%=no damage), read-out: Pre-emergence herbicidal activity (percentage phytotoxicity) ECHCG PRE
[13] = post-emergence, 360 h, POST-emergence, rate 250 g/ha, visual score 15 DAA (100%=total damage, 0%=no damage), read-out: Post-emergence herbicidal activity (percentage phytotoxicity) AVEFA POST
[14] = pre-emergence, 480 h, PRE-emergence, rate 250 g/ha, visual score 20 DAA (100%=total damage, 0%=no damage), read-out: Pre-emergence herbicidal activity (percentage phytotoxicity) AVEFA PRE
[15] = post-emergence, 360 h, POST-emergence, rate 250 g/ha, visual score 15 DAA (100%=total damage, 0%=no damage), read-out: Post-emergence herbicidal activity (percentage phytotoxicity) ALOMY POST
[16] = pre-emergence, 480 h, PRE-emergence, rate 250 g/ha, visual score 20 DAA (100%=total damage, 0%=no damage), read-out: Pre-emergence herbicidal activity (percentage phytotoxicity) ALOMY PRE
[17] = post-emergence, 360 h, POST-emergence, rate 250 g/ha, visual score 15 DAA (100%=total damage, 0%=no damage), read-out: Post-emergence herbicidal activity (percentage phytotoxicity) LOLPE POST
[18] = pre-emergence, 480 h, PRE-emergence, rate 250 g/ha, visual score 20 DAA (100%=total damage, 0%=no damage), read-out: Pre-emergence herbicidal activity (percentage phytotoxicity) LOLPE PRE

| SMILES | pest or weed control at 250 g/ha [1, 3] [%] | pest or weed control at 250 g/ha [1, 4] [%] | pest or weed control at 250 g/ha (Avena fatua (AVEFA); [5]) [%] | pest or weed control at 250 g/ha (Avena fatua (AVEFA); [6]) [%] | pest or weed control at 250 g/ha [2, 7] [%] | pest or weed control at 250 g/ha [2, 8] [%] | pest or weed control at 250 g/ha (Lolium perenne (LOLPE); [9]) [%] | pest or weed control at 250 g/ha (Lolium perenne (LOLPE); [10]) [%] | pest or weed control at 250 g/ha [1, 11] [%] | pest or weed control at 250 g/ha [1, 12] [%] | pest or weed control at 250 g/ha (Avena fatua (AVEFA); [13]) [%] | pest or weed control at 250 g/ha (Avena fatua (AVEFA); [14]) [%] | pest or weed control at 250 g/ha [2, 15] [%] | pest or weed control at 250 g/ha [2, 16] [%] | pest or weed control at 250 g/ha (Lolium perenne (LOLPE); [17]) [%] | pest or weed control at 250 g/ha (Lolium perenne (LOLPE); [18]) [%] | other results |
| --- | --- | --- | --- | --- | --- | --- | --- | --- | --- | --- | --- | --- | --- | --- | --- | --- | --- |
| Cc1cc(C)c(C2C(=O)CC(CC(=O)NCc3ccc(OC(F)(F)F)cc3)C2=O)c(C)c1 (centres unmarked) [Compound A92] | 80 | 80 | 70 | 60 | 60 | 70 | 40 | 90 |  |  |  |  |  |  |  |  |  |
| CCc1cc(OCC(F)(F)F)cc(C)c1C1C(=O)CC(CC(=O)N(C)C(C)(C)C)C1=O (centres unmarked) [Compound B221] |  |  |  |  |  |  |  |  | 100 | 100 | 100 | 100 | 100 | 100 | 100 | 100 |  |
| Cc1cc(C)c(C2C(=O)CC(CC(=O)NCc3ccc(C)o3)C2=O)c(C)c1 (centres unmarked) [Compound A97] | 0 | 0 | 20 | 0 | 70 | 30 | 70 | 90 |  |  |  |  |  |  |  |  |  |
| CCc1cc(-n2cc(Cl)cn2)cc(C)c1C1C(=O)CC(CC(=O)N(C)CC)C1=O (centres unmarked) [Compound B238] |  |  |  |  |  |  |  |  | 100 | 100 | 100 | 100 | 100 | 100 | 100 | 100 |  |
| CC#Cc1cc(C)c(C2C(=O)CC(CC(=O)N(C)CCC)C2=O)c(C)c1 (centres unmarked) [Compound A61] | 100 | 100 | 100 | 90 | 100 | 100 | 90 | 100 |  |  |  |  |  |  |  |  |  |
| Cc1cc(C)c(C2C(=O)CC(CC(N)=O)C2=O)c(C)c1 (centres unmarked) [Compound A187] |  |  |  |  |  |  |  |  |  |  |  |  |  |  |  |  | pest or weed control at 250 g/ha ([1]; post-emergence, 360 h, post-emergence, 250 g/ha, 15 DAA, visual score (100%=total damage; 0%=no damage), read-out: ECHCG POST herbicidal activity (percentage phytotoxicity)): 100%; pest or weed control at 250 g/ha ([1]; pre-emergence, 480 h, pre-emergence, 250 g/ha, 20 DAA, visual score (100%=total damage; 0%=no damage), read-out: ECHCG PRE herbicidal activity (percentage phytotoxicity)): 90%; pest or weed control at 250 g/ha (Avena fatua (AVEFA); post-emergence, 360 h, post-emergence, 250 g/ha, 15 DAA, visual score (100%=total damage; 0%=no damage), read-out: AVEFA POST herbicidal activity (percentage phytotoxicity)): 100%; pest or weed control at 250 g/ha (Avena fatua (AVEFA); pre-emergence, 480 h, pre-emergence, 250 g/ha, 20 DAA, visual score (100%=total damage; 0%=no damage), read-out: AVEFA PRE herbicidal activity (percentage phytotoxicity)): 90%; pest or weed control at 250 g/ha ([2]; post-emergence, 360 h, post-emergence, 250 g/ha, 15 DAA, visual score (100%=total damage; 0%=no damage), read-out: ALOMY POST herbicidal activity (percentage phytotoxicity)): 80%; pest or weed control at 250 g/ha ([2]; pre-emergence, 480 h, pre-emergence, 250 g/ha, 20 DAA, visual score (100%=total damage; 0%=no damage), read-out: ALOMY PRE herbicidal activity (percentage phytotoxicity)): 80%; pest or weed control at 250 g/ha (Lolium perenne (LOLPE); post-emergence, 360 h, post-emergence, 250 g/ha, 15 DAA, visual score (100%=total damage; 0%=no damage), read-out: LOLPE POST herbicidal activity (percentage phytotoxicity)): 90%; pest or weed control at 250 g/ha (Lolium perenne (LOLPE); pre-emergence, 480 h, pre-emergence, 250 g/ha, 20 DAA, visual score (100%=total damage; 0%=no damage), read-out: LOLPE PRE herbicidal activity (percentage phytotoxicity)): 100% |
| CC#Cc1cc(C)c(C2C(=O)CC(CC(=O)NCCCOC)C2=O)c(C)c1 (centres unmarked) [Compound B156] |  |  |  |  |  |  |  |  |  |  |  |  |  |  |  |  | pest or weed control at 250 g/ha ([1]; post-emergence, 360 h, 250 g/ha, post-emergence, 15 DAA, visual assessment (100%=total damage, 0%=no damage), read-out: Post-emergence herbicidal activity (percentage phytotoxicity) ECHCG POST): 100%; pest or weed control at 250 g/ha ([1]; pre-emergence, 480 h, 250 g/ha, pre-emergence, 20 DAA, visual assessment (100%=total damage, 0%=no damage), read-out: Pre-emergence herbicidal activity (percentage phytotoxicity) ECHCG PRE): 100%; pest or weed control at 250 g/ha (Avena fatua (AVEFA); post-emergence, 360 h, 250 g/ha, post-emergence, 15 DAA, visual assessment (100%=total damage, 0%=no damage), read-out: Post-emergence herbicidal activity (percentage phytotoxicity) AVEFA POST): 100%; pest or weed control at 250 g/ha (Avena fatua (AVEFA); pre-emergence, 480 h, 250 g/ha, pre-emergence, 20 DAA, visual assessment (100%=total damage, 0%=no damage), read-out: Pre-emergence herbicidal activity (percentage phytotoxicity) AVEFA PRE): 100%; pest or weed control at 250 g/ha ([2]; post-emergence, 360 h, 250 g/ha, post-emergence, 15 DAA, visual assessment (100%=total damage, 0%=no damage), read-out: Post-emergence herbicidal activity (percentage phytotoxicity) ALOMY POST): 100%; pest or weed control at 250 g/ha ([2]; pre-emergence, 480 h, 250 g/ha, pre-emergence, 20 DAA, visual assessment (100%=total damage, 0%=no damage), read-out: Pre-emergence herbicidal activity (percentage phytotoxicity) ALOMY PRE): 100%; pest or weed control at 250 g/ha (Lolium perenne (LOLPE); post-emergence, 360 h, 250 g/ha, post-emergence, 15 DAA, visual assessment (100%=total damage, 0%=no damage), read-out: Post-emergence herbicidal activity (percentage phytotoxicity) LOLPE POST): 100%; pest or weed control at 250 g/ha (Lolium perenne (LOLPE); pre-emergence, 480 h, 250 g/ha, pre-emergence, 20 DAA, visual assessment (100%=total damage, 0%=no damage), read-out: Pre-emergence herbicidal activity (percentage phytotoxicity) LOLPE PRE): 100% |
| Cc1cc(-c2ncc(F)cn2)cc(C)c1C1C(=O)CC(CC(=O)NC/C=C\Br)C1=O (centres unmarked) [Compound B326] |  |  |  |  |  |  |  |  | 100 | 100 | 100 | 80 | 100 | 100 | 100 | 100 |  |
| Cc1cc(-c2ncc(F)cn2)cc(C)c1C1C(=O)CC(CC(=O)NCc2ncccc2Cl)C1=O (centres unmarked) [Compound A140] | 100 | 100 | 100 | 100 | 100 | 90 | 90 | 100 |  |  |  |  |  |  |  |  |  |
| Cc1cc(-c2ncc(C#N)cn2)cc(C)c1C1C(=O)CC(CC(=O)N2CCOCC2)C1=O (centres unmarked) [Compound B288] |  |  |  |  |  |  |  |  | 100 | 90 | 90 | 80 | 100 | 80 | 90 | 90 |  |
| Cc1cnc(CNC(=O)CC2CC(=O)C(c3c(C)cc(-c4ncc(Cl)cc4F)cc3C)C2=O)cn1 (centres unmarked) [Compound A152] | 90 | 100 | 100 | 100 | 90 | 70 | 100 | 90 |  |  |  |  |  |  |  |  |  |
| CCN(C)C(=O)CC1CC(=O)C(c2c(C)cc(OCC(F)(F)F)cc2C)C1=O (centres unmarked) [Compound B211] |  |  |  |  |  |  |  |  | 100 | 100 | 90 | 80 | 90 | 90 | 90 |  |  |
